What was measured:
GCN2 [1] = biological target: T1, GCN2 (Homo sapiens, UniProt Q9P2K8); assay: Cellular assay for GCN2 activity (phospho-eIF2alpha immunocytochemistry, tryptophanol-stimulated U2OS cells); format: cell-based; parameters: endogenous in cells; host or cells: U2OS; details: 2 hours compound, then 600 μM tryptophanol 30 minutes, anti-phospho-eIF2alpha, read-out: IC50 GCN2 (cell assay)
Experimental: Cellular Assay for the Determination of Compound Activities
Human U2OS cells (2000 cells/well) are seeded into 384-well plates and incubated for 20 hours.
The next day, the cells are treated with the test compounds and incubated for 2 hours. Then, tryptophanol, at a final concentration of 600 μM, is added to the cells and those are incubated for 30 minutes.
The analysis of cellular GCN2 activities is done by immunocytochemistry. Briefly, cells are fixated on the well surfaces by formaldehyde and permeabilised with Triton X-100. The primary antibody (anti-phospho-eIF2alpha (Ser51, Cell Signalling Technology, #3398) is incubated on the treated cells for 20 hours, followed by a 60 minutes incubation of the secondary antibody (anti-rabbit-IgG-Alexa 488; Molecular Probes #11008). The analysis and quantification of phosphorylated GCN2 is done by scanning the plates in the Acumen Explorer system (TTPLabtech). The obtained data are normalised against the untreated control wells (DMSO only) and expressed as % effect values. The determination of IC50 values is done by using the Graph Pad Prism software.
Target sequence in this assay (Q9P2K8 whole entry): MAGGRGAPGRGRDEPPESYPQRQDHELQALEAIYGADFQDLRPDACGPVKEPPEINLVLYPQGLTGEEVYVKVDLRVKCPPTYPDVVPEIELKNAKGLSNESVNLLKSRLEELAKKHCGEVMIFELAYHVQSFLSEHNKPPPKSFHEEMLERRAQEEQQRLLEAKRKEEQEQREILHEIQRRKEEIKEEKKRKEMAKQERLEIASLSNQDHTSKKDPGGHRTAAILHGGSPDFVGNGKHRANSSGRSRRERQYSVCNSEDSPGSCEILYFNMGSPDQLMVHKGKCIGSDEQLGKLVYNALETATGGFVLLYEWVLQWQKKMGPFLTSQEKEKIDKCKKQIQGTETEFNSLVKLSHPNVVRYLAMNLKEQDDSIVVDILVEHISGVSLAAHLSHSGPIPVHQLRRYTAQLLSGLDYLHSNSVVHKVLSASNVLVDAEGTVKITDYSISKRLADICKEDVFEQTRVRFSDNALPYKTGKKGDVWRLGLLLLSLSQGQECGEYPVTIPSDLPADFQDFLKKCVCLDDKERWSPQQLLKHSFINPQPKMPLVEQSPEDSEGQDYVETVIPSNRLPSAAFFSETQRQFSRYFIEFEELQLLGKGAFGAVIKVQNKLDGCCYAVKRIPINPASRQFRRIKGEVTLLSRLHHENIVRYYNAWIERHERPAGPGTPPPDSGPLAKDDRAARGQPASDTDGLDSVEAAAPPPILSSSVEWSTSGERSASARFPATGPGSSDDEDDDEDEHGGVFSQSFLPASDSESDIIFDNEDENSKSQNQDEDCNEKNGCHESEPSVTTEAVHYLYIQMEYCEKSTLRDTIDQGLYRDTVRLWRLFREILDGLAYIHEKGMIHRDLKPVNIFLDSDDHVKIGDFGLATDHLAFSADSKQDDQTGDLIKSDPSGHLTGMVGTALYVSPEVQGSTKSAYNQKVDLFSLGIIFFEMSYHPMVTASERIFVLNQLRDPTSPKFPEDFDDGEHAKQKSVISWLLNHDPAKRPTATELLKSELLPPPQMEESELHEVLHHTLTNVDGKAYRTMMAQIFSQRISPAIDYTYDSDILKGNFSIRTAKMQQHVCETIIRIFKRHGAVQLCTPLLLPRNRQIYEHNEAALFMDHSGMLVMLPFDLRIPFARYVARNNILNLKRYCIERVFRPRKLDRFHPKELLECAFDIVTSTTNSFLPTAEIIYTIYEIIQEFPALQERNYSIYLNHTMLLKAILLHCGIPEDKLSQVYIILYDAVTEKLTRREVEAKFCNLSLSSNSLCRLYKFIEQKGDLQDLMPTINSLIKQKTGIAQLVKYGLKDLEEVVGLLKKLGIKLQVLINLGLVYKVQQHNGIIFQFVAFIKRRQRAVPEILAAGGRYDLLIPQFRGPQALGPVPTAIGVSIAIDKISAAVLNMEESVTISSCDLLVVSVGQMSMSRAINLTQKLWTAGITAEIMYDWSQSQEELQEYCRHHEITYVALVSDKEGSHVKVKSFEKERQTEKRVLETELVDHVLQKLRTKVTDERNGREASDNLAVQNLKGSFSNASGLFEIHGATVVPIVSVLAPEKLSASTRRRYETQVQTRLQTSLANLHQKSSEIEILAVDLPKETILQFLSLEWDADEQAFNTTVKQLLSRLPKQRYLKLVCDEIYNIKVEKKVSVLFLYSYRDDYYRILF

GCN2 [2] = biological target: T1, GCN2; assay: GCN2 enzyme assay (TR-FRET Lanthascreen, phosphorylation of GFP-eIF2alpha); format: biochemical; details: 10 μM ATP, 80 nM GFP-eIF2alpha, 30 nM GCN2, room temperature
Outline: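 Two-step TR-FRET (Lanthascreen) format: GCN2 incubated at room temperature with 10 μM ATP and 80 nM GFP-labelled eIF2alpha, then stopped with EDTA. Phospho-eIF2alpha detected by Tb-labelled antibody, excitation 340 nm; activity taken from the 520/495 nm emission ratio.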
Target sequence in this assay (Q9P2K8 whole entry, species assumed): as the sequence (Q9P2K8 whole entry) above

| SMILES | IC50 (GCN2 [1]) [µM] | IC50 (GCN2 [2]) [µM] |
| --- | --- | --- |
| COc1ccc(-n2nnc3cnc(Nc4cnn(CCn5cccn5)c4)nc32)nc1 [Compound A124, [3-(5-methoxy-pyridin-2-yl)-3H-[1,2,3]triazolo[4,5-d]pyrimidin-5-yl]-[1-(2-pyrazol-1-yl-ethyl)-1H-pyrazol-4-yl]-amine] | 3 to 50 | < 0.3 |
| CCOc1ccc(-n2nnc3cnc(Nc4cnn(CCCC5CCNCC5)c4)nc32)cc1 [Compound A125, [3-(4-ethoxy-phenyl)-3H-[1,2,3]triazolo[4,5-d]pyrimidin-5-yl]-[1-(3-piperidin-4-yl-propyl)-1H-pyrazol-4-yl]-amine] | < 0.3 | < 0.3 |
| Fc1cccc(-n2nnc3cnc(Nc4cnn(CCn5cccn5)c4)nc32)c1 [Compound A126, [3-(3-fluoro-phenyl)-3H-[1,2,3]triazolo[4,5-d]pyrimidin-5-yl]-[1-(2-pyrazol-1-yl-ethyl)-1H-pyrazol-4-yl]-amine] | 3 to 50 | < 0.3 |
| CCn1cc(Nc2ncc3nnn(-c4ccc(C(C)(C)OCCO)cc4)c3n2)cn1 [Compound A127, 2-(1-{4-[5-(1-ethyl-1H-pyrazol-4-ylamino)-[1,2,3]triazolo[4,5-d]pyrimidin-3-yl]-phenyl}-1-methyl-ethoxy)-ethanol] | 0.3 to 3 | < 0.3 |
| CCn1cc(Nc2ncc3nnn(-c4ccc(C(C)(C)F)cc4)c3n2)cn1 [Compound A128, (1-ethyl-1H-pyrazol-4-yl)-{3-[4-(1-fluoro-1-methyl-ethyl)-phenyl]-3H-[1,2,3]triazolo[4,5-d]pyrimidin-5-yl}-amine] | 0.3 to 3 | < 0.3 |
| CC(C)(OCCO)c1ccc(-n2nnc3cnc(Nc4cnn(C5CCOCC5)c4)nc32)cc1 [Compound A130, 2-[1-methyl-1-(4-{5-[1-(tetrahydro-pyran-4-yl)-1H-pyrazol-4-ylamino]-[1,2,3]triazolo[4,5-d]pyrimidin-3-yl}-phenyl)-ethoxy]-ethanol] | 0.3 to 3 | < 0.3 |

— patent US9409914B2, “Triazolo[4,5-d]pyrimidine derivatives” (Merck Patent GmbH, priority 2012, dated 2016)
